# Patent US5093320A, “Novel peptides inhibiting the maturation of t-lymphocytes and the activity of macrophages, pharmaceutical compositions containing them and process for preparing same” (priority 1989, dated 1992)
# Like-named read-outs stand apart in the source and are kept apart here. Positions of bridges follow the written chain, without caps; N, C: chain ends. Residues, ends and D or L forms follow the SMILES beside them. Chains are numbered I, II in the order given.
# What was measured:
# [1] = tested on: late hypersensitive (DTH) response; format: in vivo, CFLP (LATI) mice; conditions: mice sensitized with oxazolone
# Method: This test was carried out on male CFLP (LATI) mice weighing 25 to 30 g. At the beginning of the experiment, the mice were treated with a 3% solution of oxazolone in anhydrous ethanol by applying 20 μl of solution each on both ears and forepaws. […] The controls were treated only with saline. On day 10 of the experiment, 20 μl of an 2.5% olive oil solution of oxazolone were smeared on each ear of the animals. The thickness of the ears was twice measured, i.e. before and 24 hours after the administration of the antigen. The thickness was measured on both ears in the middle of the ear-lobes with an accuracy of 0.01 mm. The change was compared with the control group. The data concerning the suppression of the development of a DTH response are given as percentage values in Table 4.
# resting macrophages = format: in vivo, CFLP (LATI) mice; conditions: mice
# Method: The phagocytating capacity of resting macrophage cells was investigated on mice [J. Immunopharmacol. 4, 265 (1982-1983)]. […] After bleeding the animals, their peritonea were washed with 8 ml of PBS buffer solution (phosphate buffered saline, pH=7.2) each containing 10 IU of heparin. The cell suspension washed out from the peritoneum was made free of the erythrocytes by shocking with distilled water, then washed 3 times with PBS buffer solution. The sedimentation between two washings was achieved by centrifuging at 1000 rpm for 5 minutes. The concentration of each cell suspension was adjusted to 10^6 cell/ml and the suspension was settled for 30 minutes in a Boyden-chamber at 37° C. in an atmosphere containing 5% of carbon dioxide. Over the macrophages adhered to the glass wall, opsonized yeast was layered. After removing the non-phagocytated particles, those incorporated by the macrophages were counted in each cell. In Table 3, the percentage of decrease in the count of phagocytated yeast cells is given in relation to the macrophages isolated from the untreated animals as control.
# [2] = tested on: primary antibody production; experiment: Effect on the primary antibody production in newborn rats (haemagglutinin titre); format: in vivo, Wistar (LATI) rats; conditions: 1 mg/kg i.p. within 12 hours after birth, haemagglutinin titre on day 7 following immunization with sheep erythrocytes
# Method: This study is based on the phenomenon of agglutination. A specific antiserum adheres to the surface of the antigen forming large granules which settle rapidly (agglutinate).
# Newborn Wistar (LATI) rats were intraperitoneally (i.p.) treated with an 1 mg/kg dose of the test substance within 12 hours after birth. On the 14th day, the animals were i.p. immunized by 0.5 ml of an 1% suspension of sheep erythrocytes. On day 7 following the immunization, blood was taken retroorbitally, after 30 minutes the sera were separated by centrifuging and the haemagglutinin titre was determined according to the method of Takatsy [Acta Microbiol. Acad. Sci. Hung. 3, 191 (1955)]. From the mixed sera (50 μl) of two rats, halving dilutions were prepared in 12 steps. Each sample was given 25 /ul of a 2% suspension of sheep erythroxytes The mixture was incubated at 37° C. for one hour to evaluate the agglutination. The data are summarized in Table 2 which show the suppressing (inhibitory) effect of the compounds on the primary antibody production as a percentage value in relation to the untreated animals. Immunostimulating substances show just the opposite effect in this test.
# antibody-producing cells = experiment: Effect on the antibody-producing cells in newborn rats (plaque-forming cell count of splenocytes); format: in vivo, Wistar (LATI) rats; conditions: 1 mg/kg i.p. within 12 hours of birth, immunized day 14 with sheep erythrocytes, splenocytes 7 days later, vs untreated control
# Method: This investigation was carried out with splenocytes obtained from newborn rats according to the method of Canningham (Handbook of Experimental Immunology, Ed. D. M. Weir, Vol. 2., Blackwell, Oxford-London, page 285, 1978). Twelve Wistar (LATI) rats arising from a single litter were intraperitoneally (i.p.) treated with 7.5 μg of test substance in a dose of 1 mg/kg within 12 hours of their birth. On the 14th day after birth, the animals were i.p. immunized by 0.5 ml of an 1% suspension of sheep erythrocytes, then bled by decapitation after 7 days. From the splenocytes obtained from the animals, a homogeneous suspension was prepared using sheep erythrocyte suspension and complement which was then put into a chamber suitable for obtaining a monocellular layer. The chambers closed with paraffin were incubated at 37° C. for 45 minutes. Around the antibody-producing splenocytes, lytic areas, the so-called plaques, were formed. Under the effect of treatment with the suppressing substances, the number of the plaque-forming cells (PFC) was decreased. The data summarized in Table 1 illustrate this percentage decrease calculated on the basis of the cells obtained from the untreated control animals.
# [3] = therapeutic dose does not significantly differ from the toxic one; cited from earlier work
# [4] = 1 mg/kg i.p. on day 7, ear thickness 24 hours after antigen on day 10, vs saline control
# [5] = 1 mg/kg s.c. daily for 7 days, count of phagocytated yeast cells vs untreated animals
SMILES,"Suppression of the DTH response, Suppression % [1, 4] [%]","Change in the phagocytating capacity of resting macrophages, Change % (resting macrophages; [5]) [%]","Suppression of the antibody production, Change % (number of plaque-forming cells) (antibody-producing cells) [%]",other results
N=C(N)NCCC[C@H](N)C(=O)N[C@@H](CCCCN)C(=O)N[C@@H](CC(=O)O)C(=O)N[C@@H](CSSC[C@H](NC(=O)[C@H](CC(=O)O)NC(=O)[C@H](CCCCN)NC(=O)[C@@H](N)CCCNC(=N)N)C(N)=O)C(N)=O [(12)] (I: H-RKDC-NH2 / II: H-RKDC-NH2; disulfide I:4-II:4),35.3,-40.1,,"Effect on the primary antibody production, Change in relation to the untreated control % [2]: -10.7%"
"CC(C)C[C@H](NC(=O)[C@H](CCCCN)NC(=O)[C@H](CO)NC(=O)[C@@H](N)CCCCN)C(=O)O [(13), Lys-Ser-Lys-Leu] (H-KSKL-OH)",28.2,,,
"CC(C)C[C@H](NC(=O)[C@H](CCCCN)NC(=O)[C@@H](N)CO)C(=O)O [(14), Ser-Lys-Leu] (H-Ser-Lys-Leu-OH)",22.7,-14.0,,
"C[C@@H](O)[C@H](NC(=O)[C@H](CO)NC(=O)[C@H](CO)NC(=O)[C@@H](N)CO)C(=O)O [(15), Ser-Ser-Ser-Thr] (H-SSST-OH)",18.0,,,
"C[C@@H](O)[C@H](NC(=O)[C@H](CCC(=O)O)NC(=O)[C@@H](N)CCCCN)C(=O)O [(16), Lys-Glu-Thr] (H-Lys-Glu-Thr-OH)",27.5,,-36.8,
"C[C@@H](O)[C@H](NC(=O)[C@H](CCC(=O)O)NC(=O)[C@@H](NC(=O)[C@@H](N)CCCCN)[C@@H](C)O)C(=O)O [(17), Lys-Thr-Glu-Thr] (H-KTET-OH)",35.5,-17.5,-23.2,
"CC(C)C[C@H](NC(=O)[C@H](CCCCN)NC(=O)[C@@H]1CCCN1)C(=O)N[C@H](C(=O)O)[C@@H](C)O [(18), Pro-Lys-Leu-Thr] (H-PKLT-OH)",,-11.7,-19.4,
"C[C@@H](O)[C@H](NC(=O)[C@H](CCCCN)NC(=O)[C@@H](N)CCCCN)C(=O)N[C@@H](CCC(=O)O)C(=O)O [(19), Lys-Lys-Thr-Glu] (H-KKTE-OH)",,-18.6,-22.9,"Effect on the primary antibody production, Change in relation to the untreated control % [2]: -10.8%"
"O=P1(N(CCCl)CCCl)NCCCO1 (stereo not drawn) [Cyclophosphamide, 2-[-bis(2-chloroethyl)amino]-tetrahydro-2H-1,3,2-oxazaphosphorine-2-oxide, reference compound]",,,,"Suppression of the DTH response, Suppression % ([1]; 150 mg/kg i.p. dose): 72%; Change in the phagocytating capacity of resting macrophages, Change % (resting macrophages; 150 mg/kg i.p. dose): -75.0%; therapeutic index [3]: below 10"
"Cn1cnc([N+](=O)[O-])c1Sc1ncnc2nc[nH]c12 [azathioprin, 6-(1-methyl-4-nitro-5-imidazolylthio)purine]",,,,therapeutic index [3]: below 10
